pIC50: −log10 of the molar value. Some results are limits rather than exact numbers.

As usually defined, the pIC50 is the IC50 on a negative log10 scale, so that one unit is a factor of ten.

Chain of human NaV 1.7 (Q15858 whole entry): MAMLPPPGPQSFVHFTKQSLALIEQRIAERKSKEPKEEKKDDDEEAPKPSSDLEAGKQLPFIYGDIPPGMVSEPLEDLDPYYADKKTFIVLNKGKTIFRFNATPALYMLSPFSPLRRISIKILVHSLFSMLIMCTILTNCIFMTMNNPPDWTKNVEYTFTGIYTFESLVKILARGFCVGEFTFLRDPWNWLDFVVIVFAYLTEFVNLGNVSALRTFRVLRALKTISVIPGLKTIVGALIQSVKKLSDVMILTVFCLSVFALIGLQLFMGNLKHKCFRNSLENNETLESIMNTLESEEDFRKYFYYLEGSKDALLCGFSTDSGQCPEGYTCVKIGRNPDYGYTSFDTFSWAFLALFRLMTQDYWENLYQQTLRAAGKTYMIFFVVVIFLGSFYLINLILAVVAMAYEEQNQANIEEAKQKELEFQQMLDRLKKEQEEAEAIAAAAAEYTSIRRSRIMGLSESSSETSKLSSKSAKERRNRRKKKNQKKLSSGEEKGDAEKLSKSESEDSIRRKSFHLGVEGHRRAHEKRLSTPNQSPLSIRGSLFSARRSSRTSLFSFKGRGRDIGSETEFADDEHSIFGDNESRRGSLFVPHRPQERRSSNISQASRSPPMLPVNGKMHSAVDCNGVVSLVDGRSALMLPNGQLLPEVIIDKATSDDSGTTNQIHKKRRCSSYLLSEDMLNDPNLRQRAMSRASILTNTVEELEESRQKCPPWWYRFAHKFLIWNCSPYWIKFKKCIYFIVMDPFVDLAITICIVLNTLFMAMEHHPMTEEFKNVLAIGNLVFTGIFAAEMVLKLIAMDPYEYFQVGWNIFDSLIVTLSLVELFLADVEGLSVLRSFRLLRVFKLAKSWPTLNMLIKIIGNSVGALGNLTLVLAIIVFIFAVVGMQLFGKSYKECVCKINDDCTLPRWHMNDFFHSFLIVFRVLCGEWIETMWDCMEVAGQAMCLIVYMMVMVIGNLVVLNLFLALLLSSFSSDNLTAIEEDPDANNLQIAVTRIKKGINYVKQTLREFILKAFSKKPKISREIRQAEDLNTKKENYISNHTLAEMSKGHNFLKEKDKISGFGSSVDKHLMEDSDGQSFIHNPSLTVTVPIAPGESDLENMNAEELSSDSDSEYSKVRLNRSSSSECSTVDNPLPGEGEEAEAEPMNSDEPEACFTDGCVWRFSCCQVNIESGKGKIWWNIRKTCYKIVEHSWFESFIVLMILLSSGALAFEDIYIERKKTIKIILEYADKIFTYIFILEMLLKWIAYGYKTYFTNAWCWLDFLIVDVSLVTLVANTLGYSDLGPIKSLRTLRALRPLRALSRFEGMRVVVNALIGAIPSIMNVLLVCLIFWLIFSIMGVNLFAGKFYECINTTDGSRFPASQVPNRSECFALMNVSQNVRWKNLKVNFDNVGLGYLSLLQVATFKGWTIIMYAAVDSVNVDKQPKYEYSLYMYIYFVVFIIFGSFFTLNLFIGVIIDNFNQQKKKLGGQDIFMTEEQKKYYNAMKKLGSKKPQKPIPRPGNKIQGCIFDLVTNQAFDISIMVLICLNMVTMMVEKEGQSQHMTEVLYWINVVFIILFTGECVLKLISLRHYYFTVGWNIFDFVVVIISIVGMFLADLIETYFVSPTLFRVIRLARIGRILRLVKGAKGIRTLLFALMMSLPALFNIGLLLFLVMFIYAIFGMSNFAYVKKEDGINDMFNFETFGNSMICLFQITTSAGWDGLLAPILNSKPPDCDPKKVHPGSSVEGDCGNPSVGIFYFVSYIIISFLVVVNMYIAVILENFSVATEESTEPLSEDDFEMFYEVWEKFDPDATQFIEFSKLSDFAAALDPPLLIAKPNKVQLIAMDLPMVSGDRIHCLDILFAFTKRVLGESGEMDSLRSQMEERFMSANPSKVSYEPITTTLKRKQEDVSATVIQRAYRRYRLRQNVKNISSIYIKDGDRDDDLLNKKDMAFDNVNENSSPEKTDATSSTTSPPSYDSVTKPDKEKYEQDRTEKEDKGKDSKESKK

In the assay the target is human NaV 1.7 (Homo sapiens, UniProt Q15858). The experiment in a line: E-VIPR optical membrane potential assay with electrical stimulation. Type of assay: cell-based. As to conditions: sodium channel inhibition; read-out: Binned Activity Data (IC50). The essentials:
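Membrane-potential read-out: background-subtracted 460 nm/580 nm ratio during a 9 s current-controlled stimulus, 400 Hz scan. Before stimulation, NaV1.7-HEK cells carried coumarin/oxonol dye and compound (final DMSO 0.625%) for 20–35 min at room temperature; tetracaine 125 μM served as positive control.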
In the case of `COc1c(F)cccc1C(=O)N1CCC2(CC1)Oc1ccccc1-c1c2cnn1C(C)C` [Compound 544], the pIC50 was at least 5.70.

In the case of `CCc1ccccc1C(=O)N1CCC2(CC1)Oc1ccccc1-c1c2cnn1C` [Compound 546], the pIC50 is at least 5.70.

Take `Cc1cc(C(=O)N2CCC3(CC2)Oc2cc(Cl)ccc2-n2cccc23)ccc1OCC1CCCO1` (centres unmarked) [Compound 547]: the negative logarithm of the IC50 (pIC50) is at least 5.70.

With `Cc1cc(C#N)n2c1C1(CCN(C(=O)c3ccc(S(=O)(=O)C(C)C)cc3)CC1)Oc1ccccc1-2` [Compound 549], the pIC50 was at least 5.70.

Take `Cn1ncc2c1-c1ccccc1OC21CCN(C(=O)c2cnn(-c3ccccc3)c2C(F)(F)F)CC1` [Compound 550]: the pIC50 was 5.30 to 5.70.

Turning to `O=C(c1ccnc(N2CCCCC2)c1)N1CCC2(CC1)Oc1ccccc1-n1cccc12` [Compound 551], the pIC50 was at least 5.70.

For `COCCn1ccc(C(=O)N2CCC3(CC2)Oc2cc(Cl)ccc2-n2cccc23)cc1=O` [Compound 552], the pIC50 was at least 5.70.

Take `COc1cc(C(=O)N2CCC3(CC2)Oc2ccccc2-c2[nH]ncc23)ccc1OC(C)(C)C` [Compound 553]: the pIC50 was 5.30 to 5.70.

On to `Cc1cc(C(=O)N2CCC3(CC2)Oc2ccccc2-n2c3ccc2S(C)(=O)=O)ccc1OC(C)C` [Compound 554], for which the pIC50 was at least 5.70.

For the compound `CCc1ccc(C(=O)N2C3CCC2CC2(C3)Oc3ccccc3-n3cccc32)cc1OC` (centres unmarked) [Compound 555], the negative logarithm of the IC50 (pIC50) is at least 5.70.

As for `O=C(c1ccc2[nH]ncc2c1)N1CCC2(CC1)Oc1ccccc1-n1c(C(F)(F)F)ccc12` [Compound 556], the pIC50 is 5.30 to 5.70.

In the case of `COc1cc(C(=O)N2CCC3(CC2)Oc2ccccc2-c2c3cnn2C)ccc1S(=O)(=O)C(C)(C)C` [Compound 557], the pIC50 is at least 5.70.

Turning to `CNS(=O)(=O)c1ccc(C(=O)N2CCC3(CC2)Oc2ccccc2-n2c(C(F)(F)F)ccc23)cc1C` [Compound 558], the negative logarithm of the IC50 (pIC50) is at least 5.70.

As for `CC(C)Oc1ccc(C(=O)N2CCC3(CC2)Oc2ccccc2-n2c(C#N)ccc23)cc1CO` [Compound 559], the pIC50 is at least 5.70.

In the case of `COc1cc(F)c(C(=O)N2CCC3(CC2)Oc2cc(Cl)ccc2-n2cccc23)cc1OC` [Compound 561], the negative-log IC50 (pIC50) is at least 5.70.

For the compound `Cc1cc(C(=O)N2CCC3(CC2)Oc2ccccc2-n2cccc23)ccc1C#N` [Compound 562], the negative-log IC50 (pIC50) was at least 5.70.

Consider `CCc1ccc(C(=O)N2CCC3(CC2)Oc2ccccc2-n2c(C(F)(F)F)ccc23)nc1` [Compound 564], for which the pIC50 is 5.30 to 5.70.

`Cc1ccc(C(=O)N2CCC3(CC2)Oc2ccccc2-n2c(C(F)(F)F)ccc23)nc1` [Compound 566]: the pIC50 is under 5.30.

`COc1cc(C(=O)N2CCC3(CC2)Oc2cc(F)ccc2-n2cccc23)ccc1C(C)(C)OC` [Compound 567]: the pIC50 is at least 5.70.

With `COc1ccc(C(=O)N2CCC3(CC2)Oc2ccccc2-c2c3ccn2C)cc1C(F)(F)F` [Compound 568], the negative logarithm of the IC50 (pIC50) is at least 5.70.

Take `Cn1ncc2c1-c1ccccc1OC21CCN(C(=O)c2ccc(OC3COC3)c(F)c2)CC1` [Compound 569]: the pIC50 was under 5.30.

Regarding `COc1cc(C(=O)N2CCC3(CC2)Oc2ccccc2-n2cccc23)ccc1OC(C)(C)C#N` [Compound 570], the pIC50 is at least 5.70.

In the case of `C[C@](O)(CO)c1ccc(C(=O)N2CCC3(CC2)Oc2ccccc2-n2c(C#N)ccc23)cc1` [Compound 571], the pIC50 is at least 5.70.

Consider `CC(C)(O)c1ccc(C(=O)N2CCC3(CC2)Oc2ccccc2-n2c(C(F)(F)F)ccc23)cc1CO` [Compound 572], for which the pIC50 was 5.30 to 5.70.

Consider `COc1cc(C(=O)N2CCC3(CC2)Oc2ccccc2-n2cccc23)ccc1C(C)(C)C` [Compound 573], for which the pIC50 is at least 5.70.

Regarding `COc1cc(C(F)(F)F)ccc1C(=O)N1CCC2(CC1)Oc1ccccc1-c1c2cnn1C` [Compound 574], the pIC50 is at least 5.70.

With `COc1cc(OC)c(C(=O)N2CCC3(CC2)Oc2cc(Cl)ccc2-n2cccc23)cc1CO` [Compound 576], the negative-log IC50 (pIC50) is at least 5.70.

As to `COc1ccc(C(=O)N2CCC3(CC2)Oc2cc(Cl)ccc2-n2cccc23)c(OC)c1` [Compound 578], the pIC50 is at least 5.70.

On to `CC(C)S(=O)(=O)c1ccc(C(=O)N2CCC3(CC2)Oc2ccccc2-n2cccc23)cc1` [Compound 579], for which the pIC50 was at least 5.70.

As for `CC(C)NS(=O)(=O)c1ccc(C(=O)N2CCC3(CC2)Oc2ccc(F)cc2-c2nn(C)cc23)cc1` [Compound 580], the pIC50 is at least 5.70.

With `CC(C)Oc1ccc(C(=O)N2CCC3(CC2)Oc2ccccc2-c2c3cnn2C)c(Cl)c1` [Compound 581], the pIC50 is at least 5.70.

Regarding `CCn1ncc2c1-c1ccccc1OC21CCN(C(=O)c2ccc(S(C)(=O)=O)c(C)c2)CC1` [Compound 582], the pIC50 was at least 5.70.

For the compound `Cc1cc(C(=O)N2CCC3(CC2)Oc2ccccc2-c2c3ncn2C)ccc1OC(C)C` [Compound 583], the pIC50 is at least 5.70.

Regarding `COc1cc(C(=O)N2CCC3(CC2)Oc2ccccc2-n2cccc23)ccc1OCC(=O)O` [Compound 585], the pIC50 was 5.30 to 5.70.

Regarding `COc1cc(C(=O)N2CCC3(CC2)Oc2ccccc2-c2c3cnn2C)ccc1S(=O)(=O)C(C)C` [Compound 586], the negative logarithm of the IC50 (pIC50) was under 5.30.

Consider `COCCOc1ccc(C(=O)N2CCC3(CC2)Oc2ccccc2-c2c3cnn2C)cc1Cl` [Compound 587], for which the pIC50 is at least 5.70.

Turning to `COc1cc(C(=O)N2CCC3(CC2)Oc2cc(F)ccc2-n2cccc23)ccc1OC[C@@H](O)CO` [Compound 588], the pIC50 was at least 5.70.

For the compound `COc1cc(C(=O)N2CCC3(CC2)Oc2ccccc2-c2nn(CC(F)(F)F)cc23)ccc1OCCC(C)C` [Compound 589], the pIC50 was at least 5.70.

`CCNS(=O)(=O)c1ccc(C(=O)N2CCC3(CC2)Oc2ccccc2-n2c(C(F)(F)F)ccc23)cc1` [Compound 590]: the pIC50 was at least 5.70.

Turning to `COc1cc(C(=O)N2CCC3(CC2)Oc2cc(F)ccc2-n2cccc23)ccc1O[C@H]1CCOC1` [Compound 592], the pIC50 was at least 5.70.

Turning to `Cn1ncc2c1-c1ccccc1OC21CCN(C(=O)c2ccccc2OCC(F)(F)F)CC1` [Compound 593], the pIC50 was at least 5.70.

As to `CC(C)n1ncc2c1-c1ccccc1OC21CCN(C(=O)c2ccc(S(=O)(=O)C(C)C)cc2)CC1` [Compound 594], the pIC50 is at least 5.70.

`Cn1cc2c(n1)-c1ccccc1OC21CCN(C(=O)c2ccc3[nH]ncc3c2)CC1` [Compound 595]: the negative logarithm of the IC50 (pIC50) was at least 5.70.

For the compound `COCCOc1ccc(C(=O)N2CCC3(CC2)Oc2ccccc2-n2c(C)ccc23)cc1OC` [Compound 596], the pIC50 is at least 5.70.

For `Cn1cc2c(n1)-c1ccccc1OC21CCN(C(=O)c2ccc(CC(C)(C)O)cc2)CC1` [Compound 598], the negative logarithm of the IC50 (pIC50) was at least 5.70.

Regarding `CC(C)Oc1ccc(C(=O)N2CCC3(CC2)Oc2ccccc2-c2c3cnn2C)c(F)c1` [Compound 599], the pIC50 was at least 5.70.

Take `Cn1ncc2c1-c1ccccc1OC21CCN(C(=O)c2cn(C)c3cccnc23)CC1` [Compound 600]: the pIC50 was at least 5.70.

In the case of `COc1ccc(-n2ncc(C(=O)N3CCC4(CC3)Oc3ccccc3-c3c4cnn3C)c2C)cc1` [Compound 601], the pIC50 was at least 5.70.

For the compound `COc1cc(C(=O)N2CCC3(CC2)Oc2ccccc2-n2cccc23)ccc1OCCC(C)C` [Compound 602], the pIC50 was at least 5.70.

Regarding `COc1c(C)cccc1C(=O)N1CCC2(CC1)Oc1cc(Cl)ccc1-n1cccc12` [Compound 605], the negative-log IC50 (pIC50) is at least 5.70.

Take `CC(C)(O)c1ccc(C(=O)N2CCC3(CC2)Oc2ccccc2-n2c3ccc2S(C)(=O)=O)cc1` [Compound 607]: the negative-log IC50 (pIC50) was 5.30 to 5.70.

In the case of `Cc1cccc(C(=O)N2CCC3(CC2)Oc2ccccc2-c2c3cnn2C)c1OC(C)C` [Compound 608], the pIC50 is at least 5.70.

As to `COc1cc(C(=O)N2CCC3(CC2)Oc2cc(Cl)ccc2-n2cccc23)ccc1C(C)CO` (centres unmarked) [Compound 609], the pIC50 was at least 5.70.

In the case of `Cc1cc(C(=O)N2CCC3(CC2)Oc2ccccc2-c2c3cnn2C)ccc1OC(C)(C)C` [Compound 610], the pIC50 is at least 5.70.

Take `Cc1nc2ccc(C(=O)N3CCC4(CC3)Oc3ccccc3-c3nn(C)cc34)cc2s1` [Compound 611]: the pIC50 was at least 5.70.

Take `COc1cc(C(=O)N2CCC3(CC2)Oc2cc(F)ccc2-n2cccc23)ccc1C1(O)COC1` [Compound 612]: the pIC50 is at least 5.70.

As to `CC(C)S(=O)(=O)c1ccc(C(=O)N2CCC3(CC2)Oc2ccccc2-c2c3cnn2C)cc1` [Compound 613], the pIC50 was at least 5.70.

In the case of `COc1cccc(F)c1C(=O)N1CCC2(CC1)Oc1ccccc1-n1c2ccc1S(C)(=O)=O` [Compound 614], the negative logarithm of the IC50 (pIC50) was 5.30 to 5.70.

Take `COc1cc(C(=O)N2CCC3(CC2)Oc2cc(F)ccc2-c2c3cnn2C)ccc1OC(C)C` [Compound 617]: the pIC50 was at least 5.70.

Turning to `O=C(c1ccccc1OC(F)F)N1CCC2(CC1)Oc1ccccc1-n1c(C(F)(F)F)ccc12` [Compound 618], the negative logarithm of the IC50 (pIC50) is at least 5.70.

For `Cn1ncc2c1-c1ccccc1OC21CCN(C(=O)c2cccc(OC(F)(F)F)c2)CC1` [Compound 619], the pIC50 was under 5.30.

Consider `COc1ccc(C(=O)N2CCC3(CC2)Oc2ccccc2-c2c3cnn2C)cc1OC` [Compound 620], for which the pIC50 was at least 5.70.

`CC(C)S(=O)(=O)c1ccc(C(=O)N2CCC3(CC2)Oc2ccccc2-n2c(C(F)(F)F)ccc23)cc1` [Compound 621]: the pIC50 was at least 5.70.

In the case of `COc1cc(C(C)(C)O)ccc1C(=O)N1CCC2(CC1)Oc1ccccc1-n1c(C#N)ccc12` [Compound 622], the pIC50 was at least 5.70.

For `Cn1ncc2c1-c1ccc(Cl)cc1OC21CCN(C(=O)c2ccccc2OC(F)F)CC1` [Compound 623], the pIC50 was at least 5.70.

On to `Cn1ncc2c1-c1ccccc1OC21CCN(C(=O)c2ccc(S(=O)(=O)C(F)F)cc2)CC1` [Compound 626], for which the pIC50 is at least 5.70.

As to `COc1cc(C)ccc1C(=O)N1CCC2(CC1)Oc1cc(Cl)ccc1-n1cccc12` [Compound 627], the pIC50 was at least 5.70.

As to `COCCOc1cc(F)c(C(=O)N2CCC3(CC2)Oc2cc(Cl)ccc2-n2cccc23)cc1OC` [Compound 628], the pIC50 was at least 5.70.

The record behind these values is patent US9365588B2, “Benzoxazines as modulators of ion channels” (Vertex Pharmaceuticals Incorporated, priority 2011, dated 2016).
